Laboratory results from PubChem BioAssay AID1411 (The Scripps Research Institute Molecular Screening Center, 2008).
Calls of active or inactive are those of the source. How the calls were made is not given here.

Biological target: Signal transducer and activator of transcription 1-alpha/beta (Homo sapiens) (UniProt P42224)
Experiment: STAT1 transcription blockade – cell-based, NIH 3T3, luciferase reporter, counter-screen for STAT3 inhibitor project, dose response (AID 1411)
Details: NIH 3T3 fibroblasts, counterscreen

Chain of Signal transducer and activator of transcription 1-alpha/beta (Homo sapiens) (P42224 whole entry, looked up): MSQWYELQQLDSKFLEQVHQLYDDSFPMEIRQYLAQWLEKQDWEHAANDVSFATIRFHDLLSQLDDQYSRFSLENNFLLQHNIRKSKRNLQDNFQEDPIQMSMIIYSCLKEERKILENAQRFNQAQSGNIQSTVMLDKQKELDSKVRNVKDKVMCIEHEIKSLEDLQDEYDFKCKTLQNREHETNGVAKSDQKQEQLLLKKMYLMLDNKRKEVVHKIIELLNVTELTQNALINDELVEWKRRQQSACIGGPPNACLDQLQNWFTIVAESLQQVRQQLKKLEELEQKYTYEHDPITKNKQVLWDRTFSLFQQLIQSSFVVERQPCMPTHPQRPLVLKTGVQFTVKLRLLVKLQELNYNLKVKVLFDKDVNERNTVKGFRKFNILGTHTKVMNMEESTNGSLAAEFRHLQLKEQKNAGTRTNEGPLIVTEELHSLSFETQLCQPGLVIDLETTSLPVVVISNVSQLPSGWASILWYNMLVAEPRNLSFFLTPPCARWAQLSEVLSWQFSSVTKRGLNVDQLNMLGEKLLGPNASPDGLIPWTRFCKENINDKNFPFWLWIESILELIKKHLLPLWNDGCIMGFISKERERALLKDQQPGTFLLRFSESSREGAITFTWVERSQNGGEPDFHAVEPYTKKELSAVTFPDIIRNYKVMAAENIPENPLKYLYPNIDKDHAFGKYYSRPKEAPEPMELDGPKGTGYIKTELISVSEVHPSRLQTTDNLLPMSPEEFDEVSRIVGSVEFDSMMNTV

| SMILES | IC50 |
| --- | --- |
| COc1cc(OC)cc(C(=O)Nc2ccc(-c3nc4ccccc4o3)cc2)c1 | > 55.7 µM (inactive) |
| Nc1cc(-c2ccc(Br)cc2)nn1Cc1ccccc1 | > 55.7 µM (inactive) |
| CC(=O)N1CCc2cc(S(=O)(=O)NC3CCCc4ccccc43)ccc21 (centres undefined) | > 55.7 µM (inactive) |
| COc1ccc(/C=N/NC(=S)Nc2ccccc2[N+](=O)[O-])cc1O | > 55.7 µM (inactive) |
| Cc1cccc(C)c1NC(=O)N1CCN(c2nc3ccccc3s2)CC1 | > 55.7 µM (inactive) |
| COc1ccc(C)cc1-n1nnnc1SCn1nnc2ccccc2c1=O | > 55.7 µM (inactive) |
| Cc1nc(CNS(=O)(=O)c2ccc(Oc3ccccc3)cc2)cs1 | > 55.7 µM (inactive) |
| CNc1ccccc1C(C)(C)c1cc(-c2ccc(F)cc2)no1 | > 55.7 µM (inactive) |
| Cc1cc(C)n(Cc2ccc(NC(=O)c3ccc(COc4ccccc4Br)cc3)cc2)n1 | > 55.7 µM (inactive) |
| Cc1csc(NC(=O)c2cc3c(s2)CCCC3)n1 | inactive |
| Cc1nc2ccccc2cc1OCc1ccc(F)cc1 | > 55.7 µM (inactive) |
| Cc1cccc(N2CCN(C(=O)CSCc3c(C)noc3C)CC2)c1C | > 55.7 µM (inactive) |
| COc1ccc(-c2nn(C)c(=O)c3ccccc23)cc1NC(=O)COc1ccc(C)cc1 | inactive |
| COc1ccc(CC(=O)Nc2cccc(-c3nnc(-c4cccc(C)c4)o3)c2)cc1OC | inactive |
| CCC(C)(C)c1ccc(OCCCC[n+]2cccc(C)c2)c(C(C)(C)CC)c1 | > 55.7 µM (inactive) |
| C[C@H]1O[C@@H](O[C@H]2[C@@H](O)C[C@H](O[C@H]3[C@@H](O)C[C@H](O[C@H]4CC[C@@]5(C)[C@H](CC[C@@H]6[C@@H]5CC[C@]5(C)[C@@H](C7=CC(=O)OC7)CC[C@]65O)C4)O[C@@H]3C)O[C@@H]2C)C[C@H](O)[C@@H]1O | > 55.7 µM (inactive) |
| O=C(Nc1ccn(Cc2ccccc2F)n1)c1ccc(COc2ccc(Br)cc2)cc1 | > 55.7 µM (inactive) |
| Cc1ccc(-n2ncc3c(SCc4cccnc4)ncnc32)c(C)c1 | > 55.7 µM (inactive) |
| CC(=O)c1ccc(N=Nc2ccc(C)cc2)cc1 | inactive |
| COC(=O)Oc1ccc(/C=N/NC(=O)CSCc2ccccc2Br)cc1OC | > 55.7 µM (inactive) |
| COc1ccccc1OCC(=O)c1[nH]c(C)c(C(C)=O)c1C | > 55.7 µM (inactive) |
| C[C@@H]1O[C@@H](O[C@H]2C[C@@H](O)[C@]3(CO)[C@H]4[C@H](O)C[C@]5(C)[C@@H](C6=CC(=O)OC6)CC[C@]5(O)[C@@H]4CC[C@]3(O)C2)[C@H](O)[C@H](O)[C@H]1O | > 55.7 µM (inactive) |
| O=C(Nc1ccc(N2CCN(C(=O)c3ccco3)CC2)c(Cl)c1)c1cc2ccccc2o1 | inactive |
| Cc1cccc(-c2nc3cc(NC(=O)C4CCCO4)ccc3o2)c1 (centres undefined) | inactive |

| SMILES | IC50 |
| --- | --- |
| CN(C)S(=O)(=O)Oc1cccc(C(=O)Nc2ccc(Cl)cc2)c1 | > 55.7 µM (inactive) |
| O=C(Nc1ccncc1)c1ccc(-c2ccccc2)cc1 | > 55.7 µM (inactive) |
| O=C(Nc1ccc(Oc2ccccc2)cc1)c1cnc2n(c1=O)CCS2 | > 55.7 µM (inactive) |
| c1ccc(CC2CCN(c3ncnc4sccc34)CC2)cc1 | > 55.7 µM (inactive) |
| O=C(Nc1nc(-c2ccc(Cl)s2)cs1)c1ccncc1 | > 55.7 µM (inactive) |
| CNC(=O)Oc1cccc(-c2cn3cc(Cl)ccc3n2)c1 | inactive |
| CC[n+]1ccccc1/C=C/c1ccc(N(C)C)cc1 | > 55.7 µM (inactive) |
| O=C(NC1CC1)c1cc2c(s1)-c1ccccc1OC2 | > 55.7 µM (inactive) |
| O=C(Nc1cccc(O)c1)C(=O)Nc1ccccn1 | inactive |
| COc1ccc2cc(-c3cc(C(=O)OCC(=O)Nc4c(C)n(C)n(-c5ccccc5)c4=O)c4ccccc4n3)ccc2c1 | inactive |
| CN(C)S(=O)(=O)c1ccc(C(=O)Nc2nc(-c3cccs3)cs2)cc1 | > 55.7 µM (inactive) |
| CCOC(=O)c1sc2nc(CC(=O)OC)nc(NCc3ccc(Cl)cc3)c2c1C | > 55.7 µM (inactive) |
| C[C@H]1O[C@@H](O[C@H]2[C@@H](O)C[C@H](O[C@H]3[C@@H](O)C[C@H](O[C@H]4CC[C@@]5(C)[C@H](CC[C@@H]6[C@@H]5C[C@@H](O)[C@]5(C)[C@@H](C7=CC(=O)OC7)CC[C@]65O)C4)O[C@@H]3C)O[C@@H]2C)C[C@H](O)[C@@H]1O | > 55.7 µM (inactive) |
| CCOc1cc(C(=S)N2CCOCC2)ccc1OS(=O)(=O)c1ccc(NC(C)=O)cc1 | > 55.7 µM (inactive) |
| Cc1cc(OCC(=O)Nc2ccncc2)ccc1Br | > 55.7 µM (inactive) |
| C[C@H]1CCC[C@@H](O)CCC/C=C/c2cc(O)cc(O)c2C(=O)O1 | > 55.7 µM (inactive) |
| O=C1CCCN1c1ccc(S(=O)(=O)N2CCC(c3ccccc3)CC2)cc1 | > 55.7 µM (inactive) |
| O=C(Oc1cccc(Nc2ncnc3ccccc23)c1)c1ccccc1Cl | > 55.7 µM (inactive) |
| CC(=O)Nc1ccc(-c2csc(Nc3ccc(Cl)cn3)n2)cc1 | > 55.7 µM (inactive) |
| O=C(C1CCN(c2nc3ccc(Br)cc3s2)CC1)N1CCC2(CC1)OCCO2 | > 55.7 µM (inactive) |
| CCOC(=O)c1ccc(NC(=O)c2ccc(CN3CCOCC3)cc2)cc1 | > 55.7 µM (inactive) |
| COc1ccc(C(=O)Nc2ccc3oc(Cc4ccc(Cl)cc4)nc3c2)cc1OC | > 55.7 µM (inactive) |
| CC1CCCCC1NS(=O)(=O)c1ccc(S(=O)(=O)NCc2ccncc2)cc1 (centres undefined) | > 55.7 µM (inactive) |
| COc1cc(OC)cc(C(=O)Nc2nnc(NC(=S)Nc3ccccc3)s2)c1 | > 55.7 µM (inactive) |

| SMILES | IC50 |
| --- | --- |
| Cn1c(=O)oc2cc(S(=O)(=O)N3CCCC(C(=O)N4CC=C(c5ccccc5)CC4)C3)ccc21 (centres undefined) | > 55.7 µM (inactive) |
| O=C(Nc1ccc(Oc2ccccc2)cc1)C1CCN(c2c3c(nc4ncnn24)CCC3)CC1 | > 55.7 µM (inactive) |
| Cc1nc2ccccc2cc1OCc1ccccc1 | > 55.7 µM (inactive) |
| Cc1ccc(-n2nnnc2SCn2nnc3ccccc3c2=O)c(C)c1 | > 55.7 µM (inactive) |
| Cc1cc(OCC(=O)Nc2ccncc2)cc(C)c1Br | > 55.7 µM (inactive) |
| COc1ccc(NS(=O)(=O)c2ccc(NC(=O)c3ccc(N(C)S(C)(=O)=O)cc3)cc2)cc1 | > 55.7 µM (inactive) |
| Clc1ccc(OCc2cc(-c3ccccc3)no2)c(Cl)c1 | inactive |
| CCCNC(=O)c1ccc(-c2nc3ccccc3s2)s1 | inactive |
| O=S(=O)(c1ccc2c(c1)OCCO2)N1CCC(c2nc3ccccc3s2)CC1 | > 55.7 µM (inactive) |
| CCCCCCCc1ccc(-c2ccc(O)cc2)nc1 | > 55.7 µM (inactive) |
| O=C1C2C3c4ccccc4C(c4ccccc43)C2c2nc3ccccc3n21 (centres undefined) | > 55.7 µM (inactive) |
| CCOC(=O)c1oc2ccc(S(=O)(=O)Nc3ccc4c(c3)n(C)c(=O)n4C)cc2c1C | inactive |
| CCOC(=O)C1=C(Cc2ccc(C)cc2)C(=O)c2ccccc2C1=O | > 55.7 µM (inactive) |
| CCCOc1ccc(/C=N/NC(=S)Nc2ccccc2[N+](=O)[O-])c(O)c1 | > 55.7 µM (inactive) |
| Cc1nc2sccn2c1-c1csc(NCc2ccccc2)n1 | > 55.7 µM (inactive) |
| CCCOc1ccc(CSc2nc3ccccc3[nH]2)cc1 | > 55.7 µM (inactive) |
| Oc1ccc(-c2n[nH]c(=S)n2-c2ccc3c(c2)OCCO3)c(O)c1 | > 55.7 µM (inactive) |
| Cc1ccc(S(=O)(=O)N(C)c2ccc(C(=O)N3CCN(Cc4ccc5c(c4)OCO5)CC3)cc2)cc1 | > 55.7 µM (inactive) |
| CC1CCC2C(=O)N(c3ccccc3OC(=O)c3ccccc3)C(=O)C2C1 (centres undefined) | > 55.7 µM (inactive) |
| Nc1c(C(=O)NC2CCCCC2)nsc1C(=O)OCC(=O)NC1CCCCC1 | > 55.7 µM (inactive) |
| O=C1C2C3c4ccccc4C(c4ccccc43)[C@@H]2c2nc3ccccc3n21 (some centres undefined) | > 55.7 µM (inactive) |
| O=C1c2ccc(Br)cc2C(=O)N1c1ccc(Cc2ccncc2)cc1 | > 55.7 µM (inactive) |
| CC(C)Cn1c(N)c(C(=O)CSc2ccccc2)c(=O)n(C)c1=O | > 55.7 µM (inactive) |
| COC(=O)c1cccc(NC(=O)CSc2nc3cccnc3n2C)c1 | > 55.7 µM (inactive) |

| SMILES | IC50 |
| --- | --- |
| CN1/C(=C\C(=O)C[n+]2ccc3ccccc3c2)C(C)(C)c2ccccc21 | > 55.7 µM (inactive) |
| O=C(Nc1cccc(O)c1)c1noc2c1CCc1ccccc1-2 | inactive |
| CCN(CC)c1ccc(NC(=O)CN2C(=O)CSc3ncccc32)c(C)c1 | > 55.7 µM (inactive) |
| Cc1ccccc1OCCCCn1cnc2ccccc21 | > 55.7 µM (inactive) |
| O=C(Nc1cccc(Cl)c1)Nc1ccnc(-c2cccnc2)n1 | > 55.7 µM (inactive) |
| COC(=O)c1nn(-c2ccc3c(c2)CCN3C(C)=O)cc1O | 9.87 µM |
| O=C(Nc1ccncc1)c1ccc2c(c1)C(=O)N(C1CCCCC1)C2=O | > 55.7 µM (inactive) |
| CCOC(=O)Cc1csc(SCC(=O)c2c(N)n(CC(C)C)c(=O)n(C)c2=O)n1 | > 55.7 µM (inactive) |
| O=c1c2c(nc3n1CCCCC3)sc1c(O)cccc12 | > 55.7 µM (inactive) |
| Cc1ccc2c(C)nc(Nc3nc(CSc4nc5ccccc5[nH]4)cc(=O)[nH]3)nc2c1 | > 55.7 µM (inactive) |
| NNC(=O)c1cccc(COc2ccccc2Br)c1 | inactive |
| CCc1c(C)c2ccc(OCC(=O)OC(C)C)c(C)c2oc1=O | > 55.7 µM (inactive) |
| Cc1ccc(-c2cn3cc([N+](=O)[O-])ccc3n2)cc1 | > 18.6 µM (inactive) |
| O=C(COc1ccc2ccccc2c1)Nc1ccncc1 | > 55.7 µM (inactive) |
| Cc1ccc(Cl)cc1N1CCN(C(=O)COc2ccc(S(=O)(=O)NC(C)C)cc2)CC1 | > 55.7 µM (inactive) |
| O=C(CSc1ccc2ccccc2c1)Nc1ccncc1 | > 55.7 µM (inactive) |
| O=C(Nc1ccn(Cc2ccccc2F)n1)c1ccc(COc2ccccc2Cl)cc1 | > 55.7 µM (inactive) |
| O=C(Nc1cccc(S(=O)(=O)Nc2ccccc2Cl)c1)c1ccc(Cl)nc1 | > 55.7 µM (inactive) |
| COc1cccc(-c2cc(C(=O)Nc3cccc(O)c3)no2)c1 | inactive |
| O=C(Nc1nccs1)c1ccc(S(=O)(=O)NCC2CCCCC2)cc1 | > 55.7 µM (inactive) |
| Clc1ccc2ncc(-c3nnnn3-c3ccccc3)c(-c3ccccc3)c2c1 | > 55.7 µM (inactive) |
| COc1ccc(Br)cc1/C(C)=N/NC1=NCCN1 | > 55.7 µM (inactive) |
